Experimental data published in PubChem BioAssay (NCI).
Several values for one entry are separate records, joined by “and”; a condition that tells them apart may be missing. Equal values may be shown once.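 In this assay, cells in 96-well plates receive the compound at five concentrations for 48 hours. Endpoints are linearly interpolated between the surrounding concentrations. Here, GI50 denotes the concentration required for 50% inhibition of growth. TGI denotes the concentration required for complete inhibition of growth.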

How the values were obtained:
Experiment in all cases: NCI tumour cell line growth inhibition, 48 h
SK-OV-3 ovarian = test system: SK-OV-3 ovarian
SF-539 CNS = test system: SF-539 CNS
SF-295 CNS = test system: SF-295 CNS
CAKI-1 renal = test system: CAKI-1 renal
OVCAR-5 ovarian = test system: OVCAR-5 ovarian
PC-3 prostate = test system: PC-3 prostate
K-562 leukemia = test system: K-562 leukemia
UACC-257 melanoma = test system: UACC-257 melanoma
MCF7 breast = test system: MCF7 breast
SK-MEL-5 melanoma = test system: SK-MEL-5 melanoma

| Structure (SMILES) | GI50 (SK-OV-3 ovarian) [µM] | TGI (SK-OV-3 ovarian) | GI50 (SF-539 CNS) [µM] | TGI (SF-539 CNS) | GI50 (SF-295 CNS) [µM] | TGI (SF-295 CNS) | GI50 (CAKI-1 renal) [µM] | TGI (CAKI-1 renal) | GI50 (OVCAR-5 ovarian) [µM] | TGI (OVCAR-5 ovarian) | GI50 (PC-3 prostate) [µM] | TGI (PC-3 prostate) | GI50 (K-562 leukemia) [µM] | TGI (K-562 leukemia) [µM] | GI50 (UACC-257 melanoma) [µM] | TGI (UACC-257 melanoma) [µM] | GI50 (MCF7 breast) [µM] | TGI (MCF7 breast) | GI50 (SK-MEL-5 melanoma) [µM] | TGI (SK-MEL-5 melanoma) |
| --- | --- | --- | --- | --- | --- | --- | --- | --- | --- | --- | --- | --- | --- | --- | --- | --- | --- | --- | --- | --- |
| O=C(Nc1ccncc1)C(=O)c1cn(S(=O)(=O)c2ccc(Cl)cc2)c2ccccc12 | 19.6 | 73.8 µM | 0.696 | 12.5 µM | 1.68 | 14.9 µM | 1.86 | > 100 µM | > 30.1 | > 95.8 µM | 1.4 | > 55.5 µM | 1.08 | > 100 | 1.1 | > 100 | 0.354 | 38.7 µM | 0.443 | 11.9 µM |
| COc1cc(N(C)C)c(OC)cc1/C=C\c1ccnc2ccccc12 | – | > 10 µM | – | 6.48 µM | – | > 10 µM | – | > 10 µM | – | > 10 µM | – | > 10 µM | – | > 10 | – | > 10 | – | > 10 µM | – | 3.13 µM |
| S=C(Nc1ccc(-c2nc3ccccc3[nH]2)cc1)Nc1ccc(-c2nc3ccccc3[nH]2)cc1 | > 100 | > 100 µM | > 100 | > 100 µM | 48.4 | > 100 µM | 69.7 | > 100 µM | > 100 | > 100 µM | > 100 | > 100 µM | 83.4 | > 100 | > 100 | > 100 | 28.8 | > 100 µM | 37.1 | > 100 µM |
| O=C(NCCCO)c1cc(Cl)ccc1O | 3.31 | 12.3 µM | 4.85 | 17.5 µM | 1.36 | 6.01 µM | 6.11 | 24.6 µM | 4.4 | 19.9 µM | 2.06 | 10.2 µM | 0.901 | 18.4 | 2.23 | 7.54 | 2.64 | 11.9 µM | 1.94 | 4.33 µM |
| C=CC(=O)Nc1cc(C)ccc1Nc1nc(Nc2cc(OC)ncc2C)ncc1C(F)(F)F | 4.09 | > 100 µM | 0.344 | 1.63 µM | 2.84 | > 100 µM | 0.514 | 1.84 µM | 0.227 | 2.14 µM | 2.18 | > 100 µM | 2.56 | > 100 | 0.152 | 1.08 | 0.864 | > 32.8 µM | 1.77 | 5.42 µM |
| CCC(=C/[C@H](C)C/C=C/C(C)=C/[C@@H](C)C(=O)[C@@H](C)[C@H](O)[C@@H](C)CC)/C=C/[C@@H]1OC(=O)C=C[C@H]1C | < 0.01 | < 0.0115 µM | < 0.01 | – | < 0.01 | – | < 0.01 | < 0.01 µM | < 0.01 | 1.8 µM | < 0.01 | 1.52 µM | < 0.01 | 1.07 | < 0.01 | – | < 0.01 | 1.23 µM | < 0.01 | < 0.01 µM |
| CC(C)=CCC/C(C)=C/CC/C(C)=C/CSc1ccccc1C(=O)O | 37.6 | > 100 µM and 62.8 µM | 19.9 | 42.2 µM and 33.9 µM | 25.2 | 60.7 µM and 40 µM | 28.1 | 71.6 µM and 38.3 µM | 23.1 | 62.6 µM and 36.3 µM | 27 | > 59.3 µM and 34.1 µM | 26.2 | > 100 | 30.5 | > 100 | 33.5 | 99.1 µM and 56 µM | 19.6 | 41.5 µM and 29.5 µM |
| C#Cc1c(/C=C/C(=O)OCC)ccc2ccccc12 | 58.8 | > 100 µM | 22.3 | 48.9 µM | 13.3 | 45 µM | 21.4 | 56.7 µM | 28.9 | > 100 µM | 18.3 | 63.6 µM | 6.98 | 41.7 | 27.4 | > 100 | 24 | > 100 µM | 15.2 | 31.9 µM |
| Cc1nnc(-c2cccc(-c3ccc(C(=O)NCC4CC4)cc3)c2)o1 | > 25 | > 25 µM | > 25 | > 25 µM | > 25 | > 25 µM | > 25 | > 25 µM | > 25 | > 25 µM | > 25 | > 25 µM | > 25 | > 25 | > 25 | > 25 | > 25 | > 25 µM | > 25 | > 25 µM |
